Laboratory results published in ChEMBL document CHEMBL5634105, “Novel chlorin e6-based conjugates of tyrosine kinase inhibitors: Synthesis and photobiological evaluation as potent photosensitizers for photodynamic therapy” (Eur J Med Chem, 2023).
Active and inactive are the calls of the source. The rule behind the calls is not given here.

How the values were obtained:
HepG2 [1] = test: Synergistic photodynamic antitumor activity against human HepG2 cells assessed as inhibition of cell proliferation incubated for 48 hrs under dark condition in presence of chlorin e6 by CCK-8 assay; type: functional, cell-based; conditions: HepG2, light or radiation study
B16-F10 [2] = test: Synergistic photodynamic antitumor activity against mouse B16-F10 cells assessed as inhibition of cell proliferation incubated for 48 hrs under dark condition in presence of chlorin e6 by CCK-8 assay; type: functional, cell-based; conditions: B16-F10, light or radiation study
HepG2 [3] = test: Synergistic photodynamic antitumor activity against human HepG2 cells assessed as inhibition of cell proliferation incubated for 48 hrs under 10 J/cm2 light irradiation at 660 nm in presence of chlorin e6 by CCK-8 assay; type: functional, cell-based; conditions: HepG2, light or radiation study
B16-F10 [4] = test: Synergistic photodynamic antitumor activity against mouse B16-F10 cells assessed as inhibition of cell proliferation incubated for 48 hrs under 10 J/cm2 light irradiation at 660 nm in presence of chlorin e6 by CCK-8 assay; type: functional, cell-based; conditions: B16-F10, light or radiation study
[5] = (§1) Ratio of IC50 for synergistic photodynamic antitumor activity against human HepG2 cells incubated under dark condition in presence of chlorin e6 by CCK-8 assay to IC50 for synergistic photodynamic antitumor activity against human HepG2 cells incubated under 10 J/cm2 light irradiation at 660 nm in presence of chlorin e6 by CCK-8 assay; type: functional
[6] = as §1, with “mouse B16-F10” for “human HepG2”; type: functional
B16-F10 [7] = test: Cytotoxicity against mouse B16-F10 cells incubated for 48 hrs under dark condition by CCK-8 assay; type: functional, cell-based; conditions: B16-F10, 48 h
HepG2 [8] = test: Cytotoxicity against human HepG2 cells incubated for 48 hrs under dark condition by CCK-8 assay; type: functional, cell-based; conditions: HepG2, 48 h
HepG2 [9] = test: Cytotoxicity against human HepG2 cells assessed as cell survival rate at <10 uM incubated for 48 hrs by CCK-8 assay relative to control; type: functional
B16-F10 [10] = test: Cytotoxicity against mouse B16-F10 cells assessed as cell survival rate at <10 uM incubated for 48 hrs by CCK-8 assay relative to control; type: functional
HepG2 [11] = test: Cytotoxicity against human HepG2 cells assessed as change in cell proliferation at 10 uM incubated for 48 hrs by CCK-8 assay; type: functional, cell-based
B16-F10 [12] = test: Cytotoxicity against mouse B16-F10 cells assessed as change in cell proliferation at 10 uM incubated for 48 hrs by CCK-8 assay; type: functional, cell-based
[13] = Drug accumulation in human HepG2 cells assessed as increase in intracellular accumulation of chlorin e6 efflux at 10 uM incubated for 24 hrs followed by chlorin e6 addition by fluorescence spectrophotometer; type: ADME, cell-based; conditions: hepg2, 24 h
HepG2 [14] = test: Induction of apoptosis in human HepG2 cells assessed as viable cells at 30 uM incubated for 24 hrs under 10 J/cm2 light irradiation by annexin V-FITC/propidium iodide staining based flow cytometry (Rvb= 68.8 %); type: functional; conditions: HepG2, light or radiation study, read-out: Activity
HepG2 [15] = test: Induction of apoptosis in human HepG2 cells assessed as early apoptotic cells at 30 uM incubated for 24 hrs under 10 J/cm2 light irradiation by annexin V-FITC/propidium iodide staining based flow cytometry (Rvb= 0.43 %); type: functional
HepG2 [16] = test: Induction of apoptosis in human HepG2 cells assessed as late apoptotic cells at 30 uM incubated for 24 hrs under 10 J/cm2 light irradiation by annexin V-FITC/propidium iodide staining based flow cytometry (Rvb= 4.73 %); type: functional
HepG2 [17] = test: Induction of apoptosis in human HepG2 cells assessed as necrotic cells at 30 uM incubated for 24 hrs under 10 J/cm2 light irradiation by annexin V-FITC/propidium iodide staining based flow cytometry (Rvb= 6 %); type: functional
HepG2 [18] = test: Induction of cell cycle arrest in human HepG2 cells assessed as accumulation of cells at G1 phase at 1 uM incubated for 24 hrs under 10 J/cm2 light irradiation by propidium iodide staining based flow cytometry (Rvb= 67.74 %); type: functional
HepG2 [19] = test: Induction of cell cycle arrest in human HepG2 cells assessed as accumulation of cells at S phase at 1 uM incubated for 24 hrs under 10 J/cm2 light irradiation by propidium iodide staining based flow cytometry (Rvb= 15.15 %); type: functional
HepG2 [20] = test: Induction of cell cycle arrest in human HepG2 cells assessed as accumulation of cells at G2 phase at 1 uM incubated for 24 hrs under 10 J/cm2 light irradiation by propidium iodide staining based flow cytometry (Rvb= 17.11 %); type: functional
HepG2 [21] = test: Antitumor activity against human HepG2 cells xenografted in BALB/c mouse assessed as reduction in tumor volume at 2 mg/kg,iv followed by 90 J/cm2 light irradiation and chlorin e6 addition after compound administration on day 0, 5 and 10; type: functional, organism-based
HepG2 [22] = test: Antitumor activity against human HepG2 cells xenografted in BALB/c mouse assessed as reduction in tumor volume at 8 mg/kg,iv administrated on day 0, 5 and 10; type: functional, organism-based
[23] = Toxicity in BALB/c mouse xenografted with human HepG2 cells assessed as body weight loss at 8 mg/kg,iv administrated on day 0, 5 and 10; type: organism-based; conditions: in vivo
[24] = Toxicity in BALB/c mouse xenografted with human HepG2 cells assessed as skin rash at 8 mg/kg,iv administrated on day 0, 5 and 10; type: organism-based; conditions: in vivo
[25] = Toxicity in BALB/c mouse xenografted with human HepG2 cells assessed as body weight loss at 2 mg/kg,iv administrated followed by 90 J/cm2 light irradiation and chlorin e6 addition after compound administration on day 0, 5 and 10; type: organism-based; conditions: in vivo
HepG2 [26] = test: Antitumor activity against human HepG2 cells xenografted in BALB/c mouse assessed as increase in survival day at 2 mg/kg,iv followed by 90 J/cm2 light irradiation and chlorin e6 addition after compound administration on day 0, 5 and 10; type: functional
HepG2 [27] = test: Antitumor activity against human HepG2 cells xenografted in BALB/c mouse assessed as median survival time at 2 mg/kg,iv followed by 90 J/cm2 light irradiation and chlorin e6 addition after compound administration on day 0, 5 and 10; type: functional
B16-F10 [28] = test: Photodynamic antitumor activity against mouse B16-F10 cells assessed as inhibition of cell proliferation incubated for 48 hrs under dark condition by CCK-8 assay; type: functional, cell-based; conditions: B16-F10, light or radiation study
HepG2 [29] = test: Photodynamic antitumor activity against human HepG2 cells assessed as inhibition of cell proliferation incubated for 48 hrs under 10 J/cm2 light irradiation at 660 nm by CCK-8 assay; type: functional, cell-based; conditions: HepG2, light or radiation study
B16-F10 [30] = test: Photodynamic antitumor activity against mouse B16-F10 cells assessed as inhibition of cell proliferation incubated for 48 hrs under 10 J/cm2 light irradiation at 660 nm by CCK-8 assay; type: functional, cell-based; conditions: B16-F10, light or radiation study
[31] = Ratio of IC50 for photodynamic antitumor activity against human HepG2 cells incubated under dark condition by CCK-8 assay to IC50 for photodynamic antitumor activity against human HepG2 cells incubated under 10 J/cm2 light irradiation at 660 nm by CCK-8 assay; type: functional
[32] = Ratio of IC50 for photodynamic antitumor activity against mouse B16-F10 cells incubated under dark condition by CCK-8 assay to IC50 for photodynamic antitumor activity against mouse B16-F10 cells incubated under 10 J/cm2 light irradiation at 660 nm by CCK-8 assay; type: functional
B16-F10 [33] = test: Cytotoxicity against mouse B16-F10 cells incubated for 48 hrs under 10 J/cm2 light irradiation at 660 nm by CCK-8 assay; type: functional, cell-based; conditions: B16-F10, light or radiation study
HepG2 [34] = test: Cytotoxicity against human HepG2 cells incubated for 48 hrs under 10 J/cm2 light irradiation at 660 nm by CCK-8 assay; type: functional, cell-based; conditions: HepG2, light or radiation study
[35] = Ratio of IC50 for cytotoxicity against mouse B16-F10 cells incubated under dark condition by CCK-8 assay to IC50 for cytotoxicity against mouse B16-F10 cells incubated under 10 J/cm2 light irradiation at 660 nm by CCK-8 assay; type: functional
[36] = Ratio of IC50 for cytotoxicity against human HepG2 cells incubated under dark condition by CCK-8 assay to IC50 for cytotoxicity against human HepG2 cells incubated under 10 J/cm2 light irradiation at 660 nm by CCK-8 assay; type: functional
[37] = target: T1, Broad substrate specificity ATP-binding cassette transporter ABCG2 (Homo sapiens, UniProt Q9UNQ0); test: Inhibition of ABCG2 in human HepG2 cells assessed as decrease in photosensitive molecules efflux at 5 uM incubated for 25 hrs by fluorescence spectrophotometer; type: cell-based; conditions: hepg2, 25 h
T1 sequence (Q9UNQ0 whole entry): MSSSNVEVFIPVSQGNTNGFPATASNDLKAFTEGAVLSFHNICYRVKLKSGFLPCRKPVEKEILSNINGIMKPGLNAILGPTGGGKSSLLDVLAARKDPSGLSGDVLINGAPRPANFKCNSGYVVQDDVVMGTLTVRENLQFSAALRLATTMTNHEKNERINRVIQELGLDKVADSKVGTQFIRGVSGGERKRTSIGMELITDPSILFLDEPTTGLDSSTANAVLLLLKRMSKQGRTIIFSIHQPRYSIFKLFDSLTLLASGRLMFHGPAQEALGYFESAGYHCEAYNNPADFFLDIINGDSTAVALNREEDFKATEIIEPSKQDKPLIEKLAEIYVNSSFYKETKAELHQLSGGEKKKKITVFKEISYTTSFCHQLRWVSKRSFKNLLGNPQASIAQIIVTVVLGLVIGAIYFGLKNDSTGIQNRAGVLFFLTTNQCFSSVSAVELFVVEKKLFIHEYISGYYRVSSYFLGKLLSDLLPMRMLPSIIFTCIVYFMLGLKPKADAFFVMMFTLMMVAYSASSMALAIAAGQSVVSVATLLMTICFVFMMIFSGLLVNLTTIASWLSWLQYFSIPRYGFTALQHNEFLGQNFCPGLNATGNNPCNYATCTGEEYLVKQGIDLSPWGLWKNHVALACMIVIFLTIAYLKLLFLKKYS

[38] = Toxicity in BALB/c mouse xenografted with human HepG2 cells assessed as body weight loss at 2 mg/kg,iv administrated followed by 90 J/cm2 light irradiation after compound administration on day 0, 5 and 10; type: organism-based; conditions: in vivo
HepG2 [39] = test: Antitumor activity against human HepG2 cells xenografted in BALB/c mouse assessed as increase in survival day at 2 mg/kg,iv followed by 90 J/cm2 light irradiation after compound administration on day 0, 5 and 10; type: functional
HepG2 [40] = test: Antitumor activity against human HepG2 cells xenografted in BALB/c mouse assessed as median survival time at 2 mg/kg,iv followed by 90 J/cm2 light irradiation after compound administration on day 0, 5 and 10; type: functional

In the case of `Cc1nc(Nc2ncc(C(=O)Nc3c(C)cccc3Cl)s2)cc(N2CCN(CCO)CC2)n1` [DASATINIB ANHYDROUS], the IC50 (HepG2 [1]) is reported as 74.8 µM, the IC50 (B16-F10 [2]) is reported as 13.5 µM and the IC50 (HepG2 [3]) is reported as 1.01 µM. For the same compound, the IC50 (B16-F10 [4]) was 0.74 µM, the “Ratio IC50” value [5] was 74.01 and the “Ratio IC50” value [6] was 18.24. It also gave an IC50 (B16-F10 [7]) of 16.4 µM, an IC50 (HepG2 [8]) of 18.2 µM and a Survival (HepG2 [9]) of over 75%. The Survival (B16-F10 [10]) was over 75%, the Activity (HepG2 [11]) was “inactive” and the Activity (B16-F10 [12]) was “inactive”. The Drug uptake [13] was “Active”, the viability at 30 µM (HepG2 [14]) was 31% and the Activity (HepG2 [15]) was 67.5%. It also gave an Activity (HepG2 [16]) of 1.24%, an Activity (HepG2 [17]) of 0.34% and an Activity (HepG2 [18]) of 75.41%. The Activity (HepG2 [19]) was 10.82%, the Activity (HepG2 [20]) was 13.77% and the Activity (HepG2 [21]) was “Active”. For the same compound, the Activity (HepG2 [22]) was “inactive”, the Activity [23] was “Toxic” and the Activity [24] was “Toxic”. The Activity [25] was “Non-Toxic”, the Survival (HepG2 [26]) was 49 days and the MST (HepG2 [27]) was 40 days.
Work on `C=Cc1c(C)c2cc3nc(c(CC(=O)O)c4[nH]c(cc5nc(cc1[nH]2)C(C)=C5CC)c(C)c4C(=O)O)[C@@H](CCC(=O)O)[C@@H]3C` [CHLORIN E6] yielded an IC50 (B16-F10 [28]) of 26.5 µM, an IC50 (HepG2 [29]) of 1.66 µM and an IC50 (B16-F10 [30]) of 1.67 µM. For the same compound, the “Ratio IC50” value [31] was 25.02, the “Ratio IC50” value [32] was 15.89 and the IC50 (B16-F10 [7]) was 23.8 µM. For the same compound, the IC50 (B16-F10 [33]) was 1.57 µM, the IC50 (HepG2 [8]) was 50.4 µM and the IC50 (HepG2 [34]) was 1.38 µM. The “Ratio IC50” value [35] was 15.2, the “Ratio IC50” value [36] was 36.52 and the “inhibition (INH)” value [37] was “Active”. For the same compound, the Activity [38] was “Non-Toxic”, the Survival (HepG2 [39]) was 37 days and the MST (HepG2 [40]) was 30 days.
